Source: ChEMBL document CHEMBL3400111, “Synthesis and melanogenesis evaluation of 3',4',7-trihydroxyflavanone derivatives and characterization of flavanone-BODIPY” (Bioorg Med Chem Lett, 2015)
The source made the active and inactive calls. The rule behind the calls is not given here.

How the values were obtained:
B16-F10 [1] = experiment: Induction of melanin synthesis in mouse B16F10 cells after 48 hrs by fluorescence microscopy relative to control; assay type: functional; parameters: concentration or dose not given beside the values
Mus musculus [2] = experiment: Induction of melanogenesis in C57BL/6 depigmentation mouse assessed as increase in TRP-1 protein expression at 1.6 to 4.8 mg/kg, ip for 2 weeks measured on day 12 by H&E staining-based histomorphology; assay type: functional, organism-based
Mus musculus [3] = experiment: Induction of melanogenesis in C57BL/6 depigmentation mouse assessed as increase in TRP-2 protein expression at 1.6 to 4.8 mg/kg, ip for 2 weeks measured on day 12 by H&E staining-based histomorphology; assay type: functional, organism-based
Mus musculus [4] = experiment: Induction of melanogenesis in C57BL/6 depigmentation mouse assessed as increase in tyrosinase protein expression at 1.6 to 4.8 mg/kg, ip for 2 weeks measured on day 12 by H&E staining-based histomorphology; assay type: functional, organism-based
Mus musculus [5] = experiment: Induction of melanogenesis in C57BL/6 depigmentation mouse assessed as increase in MITF protein expression at 1.6 to 4.8 mg/kg, ip for 2 weeks measured on day 12 by H&E staining-based histomorphology; assay type: functional, organism-based
Mus musculus [6] = experiment: Induction of melanogenesis in C57BL/6 depigmentation mouse assessed as increase in melanin content of hair follicle on depigmented skin at 1.6 to 4.8 mg/kg, ip for 2 weeks by H&E stainig-based histomorphology; assay type: functional, organism-based
[7] = Cellular uptake in mouse B16F10 cells at 0.1 uM after 4 hrs by confocal imaging analysis in presence of 0.1 to 1 uM 3',4',7-trihydroxyflavaonone; assay type: ADME, cell-based; conditions: b16-f10, 4 h
[8] = Drug uptake in mouse B16F10 cell nucleus at 0.1 uM after 4 hrs by DAPI staining-based confocal imaging analysis; assay type: ADME; conditions: b16-f10, 4 h
B16-F10 [9] = experiment: Induction of melanogenesis in mouse B16F10 cells at 0.01 to 10 uM after 48 hrs by fluorescence microscopy relative to control; assay type: functional, cell-based
[10] = Drug uptake in mouse B16F10 cell endoplasmic reticulum at 0.1 uM after 4 hrs by ER-tracker Red staining-based confocal imaging analysis; assay type: ADME; conditions: b16-f10, 4 h

Row | SMILES | Activity (B16-F10 [1]) | further results
1 | COc1ccc2c(c1)OC(c1ccc(O)c(O)c1)CC2=O (centres undefined) | 110.31% | 
2 | CCCCCCCCCCCC(=O)Oc1ccc(C2CC(=O)c3ccc(OC)cc3O2)cc1O (centres undefined) | 74.13% | 
3 | COc1ccc2c(c1)OC(c1ccc(OC(=O)c3ccccc3Cl)c(OC(=O)c3ccccc3Cl)c1)CC2=O (centres undefined) | 119.46% | 
4 | CCCCCCCCCCCCCC(=O)Oc1ccc(C2CC(=O)c3ccc(OC)cc3O2)cc1O (centres undefined) | 44.63% | 
5 | COc1ccc2c(c1)OC(c1ccc(OC(=O)c3ccc(C)cc3)c(OC(=O)c3ccc(C)cc3)c1)CC2=O (centres undefined) | 113.49% | 
6 | COc1ccc2c(c1)OC(c1ccc(O)c(O)c1)C/C2=N/O (centres undefined) | 134.71% | Activity (Mus musculus [2]): Active; Activity (Mus musculus [3]): Active; Activity (Mus musculus [4]): Active; Activity (Mus musculus [5]): Active; Activity (Mus musculus [6]): Active
7 | CC1=CC(C)=[N+]2C1=C(CCC(=O)N/N=C1\CC(c3ccc(O)c(O)c3)Oc3cc(O)ccc31)c1c(C)cc(C)n1[B-]2(F)F (centres undefined) |  | Drug uptake [7]: Not Active; Drug uptake [8]: Active; Activity (B16-F10 [9]): Active; Drug uptake [10]: Active
8 | COc1ccc2c(c1)OC(c1ccc(OC(=O)c3ccccc3)c(OC(=O)c3ccccc3)c1)CC2=O (centres undefined) | 121.43% | 
9 | C=CCOc1ccc(C2CC(=O)c3ccc(OC)cc3O2)cc1OCC=C (centres undefined) | 91.19% | 
10 | COc1ccc2c(c1)OC(c1ccc(OC(=O)c3ccc(Cl)cc3)c(OC(=O)c3ccc(Cl)cc3)c1)CC2=O (centres undefined) | 121.98% | 
11 | COc1ccc2c(c1)OC(c1ccc(OC(=O)c3ccc(F)cc3)c(OC(=O)c3ccc(F)cc3)c1)CC2=O (centres undefined) | 111.79% | 
12 | COc1ccc2c(c1)OC(c1ccc(OS(=O)(=O)c3ccc(C)cc3)c(OS(=O)(=O)c3ccc(C)cc3)c1)CC2=O (centres undefined) | 100.52% | 
13 | COc1ccc2c(c1)OC(c1ccc(OC(C)=O)c(OC(C)=O)c1)CC2=O (centres undefined) | 132.3% | 
14 | CCC(=O)Oc1ccc(C2CC(=O)c3ccc(OC)cc3O2)cc1OC(=O)CC (centres undefined) | 133.65% | 
15 | COc1ccc2c(c1)OC(c1ccc(OC(=O)c3ccco3)c(OC(=O)c3ccco3)c1)CC2=O (centres undefined) | 96.11% | 
16 | CCCCCCCCCCCC(=O)Oc1ccc(C2CC(=O)c3ccc(OC)cc3O2)cc1OC(=O)CCCCCCCCCCC (centres undefined) | 89.54% | 
